# Data published in paper PMC7617869, “Molecular glues that inhibit deubiquitylase activity and inflammatory signaling” (Nature Structural & Molecular Biology, 2025).
# “And” between values parts separate entries of the source, which are not always exact repeats. Identical values can stand only once.
# Assays:
# USP2 = biological target: T1, USP2 (Homo sapiens, UniProt O75604); test: USP2 IQF diubiquitin selectivity assay; assay type: biochemical; conditions: for Normalised V0: Fig. 1e, USP-2; for USP2, normalised activity (Ext. 1a): two replicate columns
# T1 construct: His (N, cleaved yes); host or cells: Escherichia coli BL21(DE3)
# T1 sequence (O75604 258-605 limits assumed): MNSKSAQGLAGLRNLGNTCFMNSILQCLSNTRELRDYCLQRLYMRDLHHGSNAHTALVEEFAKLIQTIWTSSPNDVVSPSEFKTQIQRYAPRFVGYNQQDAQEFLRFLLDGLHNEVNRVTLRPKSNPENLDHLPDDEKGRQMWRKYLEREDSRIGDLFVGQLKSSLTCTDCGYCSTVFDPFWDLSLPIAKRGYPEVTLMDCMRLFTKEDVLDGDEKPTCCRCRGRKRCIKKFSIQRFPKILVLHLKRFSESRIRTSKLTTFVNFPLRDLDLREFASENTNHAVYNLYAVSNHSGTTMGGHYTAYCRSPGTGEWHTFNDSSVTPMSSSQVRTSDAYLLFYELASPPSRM
# Description: BRISC DUB activity was measured at room temperature using 1 nM BRISC and 500 nM IQF diubiquitin K63 substrate (LifeSensors, DU6303) in the presence of DMSO and compounds at 10 μM (final concentrations). Assays were performed in 384-well black flat-bottom low-flange plates (Corning, 35373) in buffer containing 50 mM HEPES–NaOH pH 7.0, 100 mM NaCl, 1 mg ml^−1 BSA, 1 mM DTT and 0.03% v/v Brij-35. Then, 10 μl of twofold concentrated enzyme stock was dispensed, followed by transfer of 200 nl of compounds (1 mM stock) using a 384-pin tool and a 15-min incubation at room temperature. Then, 10 μl of twofold concentrated substrate stock was added and the reaction was monitored by measuring fluorescence intensity (excitation, 540 nm; emission, 580 nm) after 20-min incubation at room temperature and ~50% of substrate was consumed. Orthogonal assays for verification of H20 and P12 hit compounds using USP2 (100 nM) and trypsin (125 nM) were performed in identical conditions.
# (§1) IQF assays were performed in DUB reaction buffer containing 50 mM HEPES–NaOH pH 7.0, 100 mM NaCl, 0.1 mg ml^−1 BSA, 1 mM DTT and 0.03% v/v Brij-35. […] The final concentration of BRISC WT, all BRISC mutants, HsBRISCΔLoop, MmBRISC and DrBRISCΔNΔC was 1 nM. Other enzymes were tested at the following concentrations: 5 nM ARISC (FL), 10 nM CfBRISCΔNΔC, 250 nM AMSH* (ref. [43]), 500 nM USP2 and 1 μM trypsin (Sigma, 9002-07-7). For Michaelis–Menten experiments, 1 nM BRISC with 0–1 μM IQF K63-linked diubiquitin substrate was used. Michaelis–Menten analyses and Lineweaver–Burk plots were calculated using GraphPad Prism (version 9.0).
# (§2) To assess enzymatic activity, BRISC complexes were diluted to concentrations between 1 nM and 50 nM. […] Then, 20-μl enzyme reactions were carried out in 384-well black flat-bottom low-flange plates (Corning, 35373). DUB activity was measured using IQF K63-linked diubiquitin (LifeSensors, DU6303) at 50 nM. Cleaved diubiquitin was monitored by measuring fluorescence intensity (excitation, 544 nm; emission, 575 nm; dichroic mirror, 560 nm). Fluorescence intensity was measured every minute for 30 min at 30 °C. Fluorescence intensity units were plotted against time to generate a linear reaction progress curve, where the initial velocity (V0) corresponds to the gradient of the curve (typically achieved within 15 min). IC50 values were calculated using the GraphPad Prism (version 9.0) built-in dose–response equation for inhibitor concentration versus response (variable slope).
# [1] = tested on: AMSH* (a STAM2–AMSH fusion); test: AMSH* IQF DUB activity assay; assay type: biochemical; conditions: for Normalised V0: Fig. 1e, AMSH*
# Description: as §1, §2
compound,measurement,setting,value
O=C(NC1CCNCC1)c1nn(C(=O)c2c(Cl)cccc2Cl)cc1NC(=O)c1c(Cl)cccc1Cl [JMS-175-2],Normalised V0,USP2; JMS-175-2 0.02 μM,1.069 and 1.241 and 0.9432
same,Normalised V0,USP2; JMS-175-2 0.0399999 μM,0.8007 and 1.129 and 1.003
same,Normalised V0,USP2; JMS-175-2 0.0599997 μM,1.048 and 0.9811 and 1.113
same,Normalised V0,USP2; JMS-175-2 0.0799994 μM,0.9033 and 1.198 and 1.261
same,Normalised V0,USP2; JMS-175-2 0.119998 μM,0.9288 and 1.09 and 1.206
same,Normalised V0,USP2; JMS-175-2 0.199996 μM,0.6627 and 1.115 and 1.202
same,Normalised V0,USP2; JMS-175-2 0.499975 μM,0.7837 and 1.098 and 1.253
same,Normalised V0,USP2; JMS-175-2 0.799936 μM,0.8725 and 1 and 1.269
same,Normalised V0,USP2; JMS-175-2 1.25984 μM,0.992 and 1.247
same,Normalised V0,USP2; JMS-175-2 1.9996 μM,0.8222 and 1.018 and 1.206
same,Normalised V0,USP2; JMS-175-2 3.159 μM,1.0183 and 0.9107 and 1.032
same,Normalised V0,USP2; JMS-175-2 5.19739 μM,1.009 and 1.289
same,Normalised V0,USP2; JMS-175-2 7.99364 μM,0.8621 and 1.003 and 1.185
same,Normalised V0,USP2; JMS-175-2 12.7839 μM,0.6092 and 0.9802 and 1.084
same,Normalised V0,USP2; JMS-175-2 19.96 μM,1.301 and 1.171 and 1.043
same,Normalised V0,USP2; JMS-175-2 31.4999 μM,1.058 and 1.049 and 0.9631
same,Normalised V0,USP2; JMS-175-2 50.147 μM,1.16 and 1.045 and 1.064
same,Normalised V0,USP2; JMS-175-2 79.7601 μM,0.9987 and 0.9518 and 1.282
same,Normalised V0,USP2; JMS-175-2 125.99 μM,1.008 and 1.145 and 1.176
same,Normalised V0,USP2; JMS-175-2 199.922 μM,0.9471 and 0.7832 and 0.9905
same,"USP2, normalised activity (Ext. 1a)","USP2; log [compound (μM)] 0.1938, listed as H20",1.2610 and 1.0496
same,"USP2, normalised activity (Ext. 1a)","USP2; log [compound (μM)] 0.4949, listed as H20",1.2203 and 1.1061
same,"USP2, normalised activity (Ext. 1a)","USP2; log [compound (μM)] 0.7959, listed as H20",1.1774 and 1.0526
same,"USP2, normalised activity (Ext. 1a)","USP2; log [compound (μM)] 1.0969, listed as H20",1.1262 and 1.0278
same,"USP2, normalised activity (Ext. 1a)","USP2; log [compound (μM)] 1.3979, listed as H20",1.0528 and 0.9672
same,"USP2, normalised activity (Ext. 1a)","USP2; log [compound (μM)] 1.6990, listed as H20",1.0367 and 0.9078
same,"USP2, normalised activity (Ext. 1a)","USP2; log [compound (μM)] 2.0000, listed as H20",0.9400 and 0.8456
same,"USP2, normalised activity (Ext. 1a)","USP2; log [compound (μM)] 2.3010, listed as H20",0.9026 and 0.7165
same,"USP2, normalised activity (Ext. 1a)","USP2; log [compound (μM)] -0.1072, listed as H20",1.1074 and 1.0499
same,"USP2, normalised activity (Ext. 1a)","USP2; log [compound (μM)] -0.4082, listed as H20",1.1923 and 1.0651
same,"USP2, normalised activity (Ext. 1a)","USP2; log [compound (μM)] -0.7093, listed as H20",1.1905 and 1.0735
same,"USP2, normalised activity (Ext. 1a)","USP2; log [compound (μM)] -1.7100, normalisation point",1.0000
same,inhibition of AMSH*,[1],did not inhibit
same,Normalised V0,[1]; JMS-175-2 0.02 μM,0.9388 and 1.234 and 1.0263
same,Normalised V0,[1]; JMS-175-2 0.0399999 μM,1.025 and 1.209 and 1.056
same,Normalised V0,[1]; JMS-175-2 0.0599997 μM,0.9933 and 1.1324 and 1.071
same,Normalised V0,[1]; JMS-175-2 0.0799994 μM,0.9897 and 1.213 and 1.205
same,Normalised V0,[1]; JMS-175-2 0.119998 μM,0.9691 and 1.214 and 1.014
same,Normalised V0,[1]; JMS-175-2 0.199996 μM,1.015 and 1.194 and 1.011
same,Normalised V0,[1]; JMS-175-2 0.499975 μM,0.9952 and 1.163 and 1.175
same,Normalised V0,[1]; JMS-175-2 0.799936 μM,1.012 and 1.167
same,Normalised V0,[1]; JMS-175-2 1.25984 μM,0.9861 and 1.185 and 1.256
same,Normalised V0,[1]; JMS-175-2 1.9996 μM,0.9727 and 1.04 and 1.202
same,Normalised V0,[1]; JMS-175-2 3.159 μM,1.015 and 1.159 and 1.047
same,Normalised V0,[1]; JMS-175-2 5.19739 μM,1.314 and 1.221 and 1.023
same,Normalised V0,[1]; JMS-175-2 7.99364 μM,1.059 and 1.183 and 1.085
same,Normalised V0,[1]; JMS-175-2 12.7839 μM,0.9322 and 1.462 and 1.072
same,Normalised V0,[1]; JMS-175-2 19.96 μM,0.9939 and 1.127 and 1.08
same,Normalised V0,[1]; JMS-175-2 31.4999 μM,1.033 and 1.252 and 1.115
same,Normalised V0,[1]; JMS-175-2 50.147 μM,0.9855 and 1.172 and 0.9587
same,Normalised V0,[1]; JMS-175-2 79.7601 μM,0.8988 and 1.1324 and 1.1315
same,Normalised V0,[1]; JMS-175-2 125.99 μM,0.8758 and 1.102 and 0.8516
same,Normalised V0,[1]; JMS-175-2 199.922 μM,0.8346 and 1.096 and 1.031
